The conditions of data set [1]: cited from earlier work; for Peak Abs.: peak absorbance wavelength of exemplary fluorescent reporter molecule; for Peak Em.: peak emission wavelength of exemplary fluorescent reporter molecule.
The test system of a further data set is U87 flank xenografts. Also noted: species or system mice. The conditions noted are these: mouse, in vivo.
For data set [2] the following is noted: mouse, in vivo.
The subject of another data set is CD-1 mice. In words: Activity level of CD-1 mice after injection of free peptides. The conditions noted are these: high dose (200 nmol), IV, starting 3 minutes post injection.

Where “and” joins values, the source holds several entries; their conditions need not be identical. Equal values may be shown once.

As for `CCCCCCCCCCCCCCCCCCN1/C(=C/C=C/C=C/C2=[N+](CCCCCCCCCCCCCCCCCC)c3ccccc3C2(C)C)C(C)(C)c2ccccc21.[O-][Cl+3]([O-])([O-])[O-]` [DiD (Vybrant DiD)], in data set [1], the “Peak Abs.” value is 645 nanometers and the “Peak Em.” value was 670 nanometers.

Regarding `Cc1cc(=O)oc2c(F)c(O)c(F)cc12` [DiFMU (pH 9.0)], in data set [1], the “Peak Abs.” value is 357 nanometers and the “Peak Em.” value is 450 nanometers.

With `CCCCCCCCCCCCCCCCCCN1/C(=C/C=C/C2=[N+](CCCCCCCCCCCCCCCCCC)c3ccccc3C2(C)C)C(C)(C)c2ccccc21.[O-][Cl+3]([O-])([O-])[O-]` [DiI (CellTrackerDiI)], in data set [1], the “Peak Abs.” value is 551 nanometers and the “Peak Em.” value is 568 nanometers. Turning to `CCCCCCCCCCCCCCCCCCN1/C(=C\C=C\c2oc3ccccc3[n+]2CCCCCCCCCCCCCCCCCC)Oc2ccccc21.[O-][Cl+3]([O-])([O-])[O-]` [DiO (Vybrant DiO)], in data set [1], the “Peak Abs.” value is 489 nanometers and the “Peak Em.” value is given as 506 nanometers. On to `CCCCCCCCCCCCCCCCCCN1/C(=C\C=C\c2oc3ccccc3[n+]2CCCCCCCCCCCCCCCCCC)Oc2ccccc21.[O-][Cl+3]([O-])([O-])[O-]` [DiO], for which, in data set [1], the “Peak Abs.” value is given as 484 nanometers and the “Peak Em.” value is recorded as 501 nanometers. On to `CN(C)c1ccc(-c2cnc(-c3ccc(S(=O)(=O)NCCNC(=O)c4c(F)c(F)c(F)c(F)c4F)cc3)o2)cc1` [ER-Tracker Blue-White DPX], for which, in data set [1], the “Peak Abs.” value is on record as 371 nanometers and the “Peak Em.” value was 554 nanometers. `O=C1OC2(c3ccc(O)cc3Oc3cc(O)ccc32)c2ccc(N=C=S)cc21` [FITC (Fluorescein), fluorescein isothiocyanine]: in data set [1], the “Peak Abs.” value is listed as 492 nanometers and the “Peak Em.” value was 520 nanometers. For the compound `CC(=O)Oc1cc2c(cc1Cl)C(c1ccccc1C(=O)O)c1cc(Cl)c(OC(C)=O)cc1O2` [H2DCFDA (H2-DCF, DCFR)], in data set [1], the “Peak Abs.” value is on record as 504 nanometers and the “Peak Em.” value is 540 nanometers. For the compound `O=S(=O)([O-])c1cc(O)c2ccc3c(S(=O)(=O)[O-])cc(S(=O)(=O)[O-])c4ccc1c2c34.[Na+].[Na+].[Na+]` [HPTS (Solvent Green 7)], in data set [1], the “Peak Abs.” value is given as 455 nanometers and the “Peak Em.” value was 510 nanometers.

As for `CC1(C)C(/C=C/C=C/C=C/C=C2\N(CCCCS(=O)(=O)[O-])c3ccc4ccccc4c3C2(C)C)=[N+](CCCCS(=O)(=O)[O-])c2ccc3ccccc3c21.[Na+]` [ICG free dye, Cardiogreen (ICG)], the “Targeting / detection in tumor tissue” value in the data set with U87 flank xenografts is recorded as “not detected”. In addition, in data set [2], the “Detection in fecal matter” value is on record as “detectable in the fecal matter” and the “Detection in liver, kidney, spleen, or brain” value was “not detectable”. In the case of `CC1(C)C(=CC=C2CCCC(C=CC3=[N+](CCCCCC(=O)[O-])c4ccc(S(=O)(=O)[O-])cc4C3(C)C)=C2Oc2ccc(S(=O)(=O)[O-])cc2)N(CCCCS(=O)(=O)[O-])c2ccc(S(=O)(=O)[O-])cc21.[Na+].[Na+].[Na+].[Na+]` [IRDye 800CW], in data set [1], the “Peak Abs.” value was 774 nanometers and the “Peak Em.” value was 789 nanometers.

Consider `CN(C)CCNC(=O)CCc1ccc2n1[B-](F)(F)[N+]1=C(c3ccc[nH]3)C=CC1=C2` [LysoTracker Red], for which, in data set [1], the “Peak Abs.” value was 573 nanometers and the “Peak Em.” value is 592 nanometers. Turning to `Cc1c(CC(=O)O)c(=O)oc2c(F)c(O)c(F)cc12` [Marina Blue], in data set [1], the “Peak Abs.” value is 365 nanometers and the “Peak Em.” value is 460 nanometers. Consider `C[N+]1=C(/C=C/C=C/C=C2\N(Cc3ccc(CCl)cc3)c3ccccc3C2(C)C)C(C)(C)c2ccccc21.[Cl-]` [MitoTracker Deep Red FM], for which, in data set [1], the “Peak Abs.” value is 641 nanometers and the “Peak Em.” value is recorded as 661 nanometers. `ClCc1ccc(C2=c3cc4c5c(c3Oc3c2cc2c6c3CCCN6CCC2)CCC[N+]=5CCC4)cc1.[Cl-]` [MitoTracker Red CMXRos]: in data set [1], the “Peak Abs.” value is listed as 578 nanometers and the “Peak Em.” value is recorded as 597 nanometers. On to `Nc1ccc([N+](=O)[O-])c2nonc12` [NBD Amine], for which, in data set [1], the “Peak Abs.” value is 450 nanometers and the “Peak Em.” value is 530 nanometers. Consider `O=C(O)CCCCCNc1ccc([N+](=O)[O-])c2nonc12` [NBD-X], for which, in data set [1], the “Peak Abs.” value is 467 nanometers and the “Peak Em.” value is given as 538 nanometers. Turning to `O=C(O)CSc1c(F)c(F)c(C(=O)O)c(-c2c3cc(F)c(=O)cc-3oc3cc(O)c(F)cc23)c1F` [Oregon Green 514], in data set [1], the “Peak Abs.” value is 512 nanometers and the “Peak Em.” value is given as 532 nanometers.

Turning to `COc1cc2cc(-c3ccc(C(=O)O)cc3C(=O)O)oc2cc1N1CCOCCOCCN(c2cc3oc(-c4ccc(C(=O)O)cc4C(=O)O)cc3cc2OC)CCOCCOCC1` [PBFI], in data set [1], the “Peak Abs.” value was 360 nanometers and the “Peak Em.” value was 420 nanometers. For the compound `CN1/C(=C/c2cc[n+](CCC[N+](C)(C)CCC[N+](C)(C)CCC[n+]3ccc(/C=C4/Oc5ccccc5N4C)cc3)cc2)Oc2ccccc21.[I-].[I-].[I-].[I-]` [POPO-1], in data set [1], the “Peak Abs.” value is 434 nanometers and the “Peak Em.” value is 456 nanometers.

For `CN1/C(=C/C=C/c2cc[n+](CCC[N+](C)(C)CCC[N+](C)(C)CCC[n+]3ccc(/C=C/C=C4/Oc5ccccc5N4C)cc3)cc2)Oc2ccccc21.[I-].[I-].[I-].[I-]` [POPO-3], in data set [1], the “Peak Abs.” value is listed as 532 nanometers and the “Peak Em.” value was 573 nanometers. For the compound `O=C(O)c1cc2cc(F)c(O)c(F)c2oc1=O` [Pacific Blue], in data set [1], the “Peak Abs.” value is 405 nanometers and 410 nanometers; the “Peak Em.” value was 455 nanometers. In the case of `O=S(=O)([O-])c1cc(Nc2nc(Nc3ccccc3)nc(N(CCO)CCO)n2)ccc1/C=C/c1ccc(Nc2nc(Nc3ccccc3)nc(N(CCO)CCO)n2)cc1S(=O)(=O)[O-].[Na+].[Na+]` [Phorwite AR], in data set [1], the “Peak Abs.” value is reported as 360 nanometers and the “Peak Em.” value is reported as 430 nanometers. On to `CCN(CC)c1ccc(/C=C/C=C/c2cc[n+](CC(O)C[N+](C)(C)CCO)cc2)cc1.[Br-].[Br-]` (stereo not drawn) [RH 795], for which, in data set [1], the “Peak Abs.” value is reported as 530 nanometers and the “Peak Em.” value was 712 nanometers.

On to `O=c1ccc2nc3ccc(O)c([As]4SCCS4)c3oc-2c1[As]1SCCS1` [ReAsH (TC-ReAsH)], for which, in data set [1], the “Peak Abs.” value is reported as 593 nanometers and the “Peak Em.” value is given as 608 nanometers. Turning to `CCCN(CCCN(C)C)c1cc(/C=C2/Sc3ccccc3N2C)c2ccccc2[n+]1-c1ccccc1` [SYBR Green I], in data set [1], the “Peak Abs.” value is listed as 497 nanometers and the “Peak Em.” value is listed as 521 nanometers. Take `CN1/C(=C/c2cc[n+](CCC[N+](C)(C)CCC[N+](C)(C)CCC[n+]3ccc(/C=C4\Sc5ccccc5N4C)c4ccccc43)c3ccccc23)Sc2ccccc21.[I-].[I-].[I-].[I-]` [TOTO-1]: in data set [1], the “Peak Abs.” value is 513 nanometers and the “Peak Em.” value was 531 nanometers. For `Cl.Cl.N=C(N)c1ccc2oc(/C=C/c3cc4cc(C(=N)N)ccc4o3)cc2c1` [True Blue], in data set [1], the “Peak Abs.” value is reported as 365 nanometers and the “Peak Em.” value was 425 nanometers. Take `CCN(CC)c1ccc2c(-c3ccc(S(=O)(=O)NCCCCCC(=O)O)cc3S(=O)(=O)[O-])c3ccc(=[N+](CC)CC)cc-3oc2c1` [rhodamine Red-X]: in data set [1], the “Peak Abs.” value is reported as 572 nanometers and the “Peak Em.” value is 591 nanometers.

Take Allophycocyanin [APC (Allophycocyanin)]: in data set [1], the “Peak Abs.” value is reported as 651 nanometers and the “Peak Em.” value is listed as 660 nanometers. Turning to “CFP: Exemplary fluorescent reporter molecules”, the “Peak Abs.” value in data set [1] is on record as 434 nanometers. As to Carboxynaphthofluorescein, in data set [1], the “Peak Abs.” value is 600 nanometers and the “Peak Em.” value is listed as 674 nanometers. As for Cascade Blue, in data set [1], the “Peak Abs.” value was 400 nanometers and 377 nanometers; the “Peak Em.” value is 420 nanometers. In the case of Chlorotoxin [KNT-01], in the data set with CD-1 mice, the “Activity level after free peptide injection” value is “decrease in activity level, somnolence, and prostration”. Turning to Cy5.5, in data set [1], the “Peak Abs.” value was 672 nanometers and 678 nanometers; the “Peak Em.” value is 690 nanometers and 696 nanometers. Fast Blue: in data set [1], the “Peak Abs.” value was 360 nanometers and the “Peak Em.” value is recorded as 440 nanometers.

For Fluo-4, in data set [1], the “Peak Abs.” value is on record as 494 nanometers and the “Peak Em.” value is 540 nanometers. On to Methoxycoumarin, for which, in data set [1], the “Peak Abs.” value is recorded as 360 nanometers and the “Peak Em.” value is given as 410 nanometers.

With Nitrobenzoxadiazole, in data set [1], the “Peak Abs.” value is 465 nanometers and the “Peak Em.” value is reported as 510 nanometers. Regarding “Phycoerythrin [Phycoerythrin (PE, R-phycoerythrin)]”, in data set [1], the “Peak Abs.” value was 567 nanometers and the “Peak Em.” value is on record as 576 nanometers. On to Rhod-2, for which, in data set [1], the “Peak Abs.” value is given as 551 nanometers and the “Peak Em.” value was 576 nanometers. On to SYTO 9, for which, in data set [1], the “Peak Abs.” value was 482 nanometers and the “Peak Em.” value is given as 500 nanometers. With SYTO 16, in data set [1], the “Peak Abs.” value is given as 490 nanometers and the “Peak Em.” value is on record as 520 nanometers.

For TOTO-3, in data set [1], the “Peak Abs.” value was 642 nanometers and the “Peak Em.” value is 661 nanometers. For Texas Red, in data set [1], the “Peak Abs.” value is given as 592 nanometers and the “Peak Em.” value was 615 nanometers. Turning to carboxy-X-rhodamine [ROX (6-ROX)], in data set [1], the “Peak Abs.” value is on record as 568 nanometers and the “Peak Em.” value was 595 nanometers. Take carboxytetramethyl-rhodamine [TAMRA]: in data set [1], the “Peak Abs.” value is on record as 565 nanometers and the “Peak Em.” value was 580 nanometers.

The values are drawn from patent US20250115648A1 (priority 2013, published 2025).
